Where “and” joins values, the source holds several entries; their conditions need not be identical. Identical values can stand only once. Like-named read-outs stand apart in the source and are kept apart here. *1 amine or outer side, *2 acyl side, *3 side chain or, on linkers, in order; H or OH if unused. Where a SMILES comes first, the peptide text is derived from it. Bridges are numbered along the chain shown (N, C = ends). Roman numbers before positions name the chains, in order. [ ]: non-standard residue; d: D form. Actinocin(9to1) = Cc1c2oc3c(C)ccc(C(=O)[*:1])c3nc-2c(C(=O)[*:2])c(N)c1=O; NMeV = CN[C@H](C(=O)O)C(C)C; Sar = CNCC(=O)O
T1: GT198 (Homo sapiens, UniProt Q9P2W1)
T1 sequence (Q9P2W1 1-180): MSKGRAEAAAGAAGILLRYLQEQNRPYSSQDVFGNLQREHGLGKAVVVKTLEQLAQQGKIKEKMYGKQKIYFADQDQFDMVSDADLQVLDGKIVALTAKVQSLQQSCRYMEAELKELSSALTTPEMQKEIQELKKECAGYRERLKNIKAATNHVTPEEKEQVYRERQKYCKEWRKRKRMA

T2: GT198 (Hop2), C-terminally truncated (human, UniProt Q9P2W1 1-180, del181-217)
T2 sequence: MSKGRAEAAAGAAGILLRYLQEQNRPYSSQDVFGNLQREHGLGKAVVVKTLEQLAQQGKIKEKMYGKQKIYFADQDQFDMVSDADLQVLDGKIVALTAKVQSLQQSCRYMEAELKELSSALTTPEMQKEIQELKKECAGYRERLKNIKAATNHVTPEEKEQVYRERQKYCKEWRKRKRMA


Key:
GT198 [1] = biological target: T1, GT198; experiment: In vitro DNA-binding assay of GT198 (biotinylated DNA, chemiluminescence); parameters: Efficacy: dose or concentration left out as unconfirmed; settings: for Activity: NCI Approved Oncology Drug Set VII; for inhibition at 2 µM: read-out: Efficacy; for Efficacy: percent of inhibition of drugs
GT198 [2] = biological target: T1, GT198; experiment: biochemical
GT198 [3] = biological target: T1, GT198; parameters: this study used a C-terminal truncated version of GT198 (aa 1–180) to ensure high sensitivity of the assay; His tag (N); made in house; host or cells: E. coli BL21 (DE3) pLysS; method as in doi:10.1101/675579; settings: separate study ref 45; cited from earlier work
[4] = biological target: T2, GT198 (Hop2), C-terminally truncated; experiment: plate binding assay (immobilized protein, streptavidin-HRP chemiluminescence); EC50; no drug; 20 mM Tris-HCl pH 7.5, 50 mM NaCl, 75 mM KCl, 0.5 mM MgCl2, 0.05% Triton X-100, 10% glycerol, 1 mM DTT; 4 C, 4 h to overnight; 400 ng/well GT198 plus 5 ug BSA; settings: protein: recombinant; tags: N-terminal His; chain copies: 2; label: biotin
[5] = Table 1, drugs not measured with IC50 are shown as active or inactive
[6] = IC50, figures 2, 3, 150 nM DNA, sigmoidal curve fit, ND = not detectable

| GT198 inhibition (in words) (GT198 [1]) | Efficacy (active or inactive) (GT198 [1]; [5]) | IC50 (GT198 [2]) [nM] | inhibition at 2 µM (GT198 [1]) [%] | Molecule | further results |
| --- | --- | --- | --- | --- | --- |
| positive inhibitors | Active | – | – | NCC(=O)CCC(=O)O [Aminolevulinic acid] | Activity (GT198 [1]; Supplementary Table 1): + |
| – | Inactive | – | – | CO[C@H]1C(=O)[C@]2(C)[C@@H](OC)C[C@H]3OC[C@@]3(OC(C)=O)[C@H]2[C@H](OC(=O)c2ccccc2)[C@]2(O)C[C@H](OC(=O)[C@H](O)[C@@H](NC(=O)OC(C)(C)C)c3ccccc3)C(C)=C1C2(C)C [Cabazitaxel] | – |
| positive inhibitors | Active | – | – | CC(C)C[C@H](NC(=O)[C@H](CCc1ccccc1)NC(=O)CN1CCOCC1)C(=O)N[C@@H](Cc1ccccc1)C(=O)N[C@@H](CC(C)C)C(=O)[C@@]1(C)CO1 [Carfilzomib] | – |
| GT198 inhibitors | Active | – | – | CC(=O)O[C@@]12CO[C@@H]1C[C@H](O)[C@@]1(C)C(=O)[C@H](O)C3=C(C)[C@@H](OC(=O)[C@H](O)[C@@H](NC(=O)OC(C)(C)C)c4ccccc4)C[C@@](O)([C@@H](OC(=O)c4ccccc4)[C@H]21)C3(C)C [Docetaxel] | – |
| – | – | – | – | COc1cccc2c1C(=O)c1c(O)c3c(c(O)c1C2=O)C[C@@](O)(C(=O)CO)C[C@@H]3O[C@H]1C[C@H](N)[C@@H](O)[C@H](C)O1 [Epirubicin] | IC50 (GT198 [1]; IC50): 750 nM and 749 nM |
| GT198 inhibitors | – | 24 | 42 | COc1cc([C@@H]2c3cc4c(cc3[C@@H](O[C@@H]3O[C@@H]5CO[C@@H](C)O[C@H]5[C@H](O)[C@H]3O)[C@H]3COC(=O)[C@H]23)OCO4)cc(OC)c1O [Etoposide] | IC50 (GT198 [1]; [6]): 24.2 nM |
| – | – | 362 | 56 | CC(=O)[C@]1(O)Cc2c(O)c3c(c(O)c2[C@@H](O[C@H]2C[C@H](N)[C@H](O)[C@H](C)O2)C1)C(=O)c1ccccc1C3=O [Idarubicin] | IC50 (GT198 [1]; [6]): 362 nM |
| negatives | – | – | – | CN(Cc1cnc2nc(N)nc(N)c2n1)c1ccc(C(=O)N[C@@H](CCC(=O)O)C(=O)O)cc1 [Methotrexate] | – |
| GT198 inhibitors | – | 5 | 32 | CC(=O)O[C@H]1C(=O)[C@@]2(C)[C@H]([C@H](OC(=O)c3ccccc3)[C@]3(O)C[C@H](OC(=O)[C@H](O)[C@@H](NC(=O)c4ccccc4)c4ccccc4)C(C)=C1C3(C)C)[C@]1(OC(C)=O)CO[C@@H]1C[C@@H]2O [Paclitaxel] | Mode of inhibition (GT198 [3]): allosteric inhibitor or noncompetitive inhibitor |
| positive inhibitors | Active | – | – | CO[C@H]1C[C@@H]2CC[C@@H](C)[C@@](O)(O2)C(=O)C(=O)N2CCCC[C@H]2C(=O)O[C@H]([C@H](C)C[C@@H]2CC[C@@H](O)[C@H](OC)C2)CC(=O)[C@H](C)/C=C(\C)[C@@H](O)[C@@H](OC)C(=O)[C@H](C)C[C@H](C)/C=C/C=C/C=C/1C [Sirolimus] | – |
| positive inhibitors | Active | – | – | CCN(CC)CCNC(=O)c1c(C)[nH]c(/C=C2\C(=O)Nc3ccc(F)cc32)c1C [Sunitinib] | Activity (GT198 [1]; Supplementary Table 1): + |
| GT198 inhibitors | Active | – | – | COc1cc([C@@H]2c3cc4c(cc3[C@@H](O[C@@H]3O[C@@H]5CO[C@@H](c6cccs6)O[C@H]5[C@H](O)[C@H]3O)[C@H]3COC(=O)[C@H]23)OCO4)cc(OC)c1O [Teniposide] | – |
| positive inhibitors | Active | – | – | O=c1[nH]c(=O)n([C@H]2C[C@H](O)[C@@H](CO)O2)cc1C(F)(F)F [Trifluridine] | Activity (GT198 [1]; Supplementary Table 1): + |
| – | – | 973 | 26 | CCCCC(=O)OCC(=O)[C@]1(O)Cc2c(O)c3c(c(O)c2[C@@H](O[C@H]2C[C@H](NC(=O)C(F)(F)F)[C@H](O)[C@H](C)O2)C1)C(=O)c1c(OC)cccc1C3=O [Valrubicin] | IC50 (GT198 [1]; [6]): 973 nM |
| negatives | Inactive | – | – | CC[C@]1(O)C[C@H]2CN(CCc3c([nH]c4ccccc34)[C@@](C(=O)OC)(c3cc4c(cc3OC)N(C=O)[C@H]3[C@@](O)(C(=O)OC)[C@H](OC(C)=O)[C@]5(CC)C=CCN6CC[C@]43[C@@H]65)C2)C1 [Vincristine] | – |
| – | – | – | – | CCTGGGGTTGCTGAGGTCCTGGCAG (ssDNA, biotin before the first printed base (5')) [biotin 25-mer ssDNA] | apparent K (half saturation) [4]: 43 nM |

| Molecule | GT198 inhibition (in words) (GT198 [1]) | Efficacy (active or inactive) (GT198 [1]; [5]) | IC50 (GT198 [2]) [nM] | inhibition at 2 µM (GT198 [1]) [%] | further results |
| --- | --- | --- | --- | --- | --- |
| CC[C@@]1(O)C(=O)OCc2c1cc1n(c2=O)Cc2cc3ccccc3nc2-1 [Camptothecin] | very poor affinities or fail to inhibit GT198 | – | 2060 | 30 | – |
| N.N.O=C([O-])C1(C(=O)[O-])CCC1.[Pt+2] [Carboplatin] | does not inhibit GT198 | Inactive | – | – | IC50 (GT198 [1]; Supplementary Table 1): > 2000 nM; Efficacy (GT198 [1]; Supplementary Table 1): 0% |
| CC1=C(O)C(=O)C=C2C1=CC=C1[C@@]2(C)CC[C@@]2(C)[C@@H]3C[C@](C)(C(=O)O)CC[C@]3(C)CC[C@]12C [Celastrol] | positive | – | – | 30 | IC50 (GT198 [1]; IC50): 350 nM |
| N.N.[Cl][Pt][Cl] [Cisplatin] | – | Inactive | – | – | – |
| Cc1c2oc3c(C)ccc(C(=O)N[C@@H]4C(=O)N[C@H](C(C)C)C(=O)N5CCC[C@H]5C(=O)N(C)CC(=O)N(C)[C@@H](C(C)C)C(=O)O[C@@H]4C)c3nc-2c(C(=O)N[C@@H]2C(=O)N[C@H](C(C)C)C(=O)N3CCC[C@H]3C(=O)N(C)CC(=O)N(C)[C@@H](C(C)C)C(=O)O[C@@H]2C)c(N)c1=O [Dactinomycin] (I: T[dV]P[Sar][NMeV] / II: T[dV]P[Sar][NMeV]; ester I:1-I:C, II:1-II:C; linker I:N-II:N via Actinocin(9to1)) | positive inhibitors | – | – | – | Efficacy (active or inactive) (GT198 [1]): Active |
| COc1cccc2c1C(=O)c1c(O)c3c(c(O)c1C2=O)C[C@@](O)(C(C)=O)C[C@@H]3O[C@H]1C[C@H](N)[C@H](O)[C@H](C)O1 [Daunorubicin] | – | – | 149 | 48 | IC50 (GT198 [1]; [6]): 150 nM |
| CCc1c2c(nc3ccc(OC(=O)N4CCC(N5CCCCC5)CC4)cc13)-c1cc3c(c(=O)n1C2)COC(=O)[C@]3(O)CC [Irinotecan] | very poor affinities or fail to inhibit GT198 | – | > 2000 | 10 | – |
| O=C1c2c(O)ccc(O)c2C(=O)c2c(NCCNCCO)ccc(NCCNCCO)c21 [Mitoxantrone] | almost complete inhibition | – | 187 | 90 | IC50 (GT198 [1]; [6]): 187 nM; Activity (GT198 [1]; Supplementary Table 1): +; Efficacy (GT198 [1]; Supplementary Table 1): 90% |
| CC[C@@]1(O)C(=O)OCc2c1cc1n(c2=O)Cc2cc3c(CN(C)C)c(O)ccc3nc2-1 [Topotecan] | very poor affinities or fail to inhibit GT198 | – | > 2000 | 4 | Efficacy (GT198 [1]; Supplementary Table 1): 4% |
